How the values were obtained:
[1] = test system: patients with panic syndrome; experiment: Double-blind, parallel group clinical study in patients with panic syndrome (end point analysis); assay type: in vivo, human
Protocol: The results of a clinical study will be referred to as an example of the use and the effect of discontinuous therapy of panic attacks by means of compound A.
(§1) The clinical study is a double-blind, parallel group study in which in each case 12 patients with panic syndrome were treated either with compound A, that is, tablets containing 0.5 mg of active substance or with a corresponding placebo. The course of the trial was the following. After examining the inclusion and exclusion criteria and recording the basic data, the patients each received 20 tablets with instructions to take one tablet at the approach or beginning of the next panic attack. The medicaments previously used had been withdrawn before the commencement of the study. In the case of a satisfactory outcome of treatment the initial dosage was to be used a once more. Then, for the second investigation, the investigator was to be consulted. In the case of an unsatisfactory outcome of therapy, the dosage in the case of the second panic attack was to be increased to two tablets, which dosage was to be repeated in the case of success and, in the case of failure, was to be increased to three tablets. […] Patients with ineffective medication were to be discharged from the trial. Patients in whom an effective dosage had been found would use that dose in the next twelve panic states. In cases in which withdrawal phenomena of the preceding treatment played a role, the twelve treatments of the main treatment phase can be extended with an additional twelve dosages in a further phase, additional phase.
(§2) During the treatment, the patients were required to carry a treatment day book. On the basis of the remarks contained therein, the statements of the patients as well as specific observations, the results of the trial at the end of the titration phase (investigation 2), at the end of the main treatment phase (investigation 3) and, if desired, at the end of the additional phase (investigation 4) were introduced into the trial data by the investigator. The following psychiatric scales were filled out as standardized comparative investigations at all points in time of the trial: anxiety scale according to Covi, depression scale according to Raskin, self-evaluated anxiety scale (SAS) and self-evaluated depression scale (SDS) according to Zung, as well as the withdrawal symptom scale (WSS) according to Merz & Ballmer.
In each case, 12 patients were treated with compound A or placebo. In the group treated with compound A, 7 were male and 5 female with an average age of 33±5.4 years, of which--according to the DSM-III classification--2 suffered from panic syndrome without agoraphobia and 10 suffered from panic syndrome with agoraphobia. The diagnosis of a major depression was also established in 6 cases.
The average duration of the disorder amounted to 98±83 months in the group treated with compound A and to 143±164 months in the placebo group. The weekly frequency of panic states was 5.6±3.2 in the group treated with compound A and 7.6±5.6 in the placebo group. In this calculation, a runaway in the placebo group which fell outside the average value and the five-fold standard deviation was not taken into consideration. The average duration of the panic attacks was 27±17 minutes in the group treated with compound A and 25±16 minutes in the placebo group. Nine (9) patients treated with compound A and 10 placebo patients were able to predict attacks with an average prediction time of 11±12 minutes in the group treated with compound A and 10±7 minutes in the placebo group.
Because of the different lengths of the total treatment, average duration 43±27 days in the group treated with compound A and 28±32 days in the placebo group and because of the unequal distribution of the exclusions and drop-outs, the following results are presented in the form of an end point analysis: […]

[2] = Plasma level after peroral intake of compound A in tablet form; assay type: in vivo; settings: human, po, 1 mg perorally in tablet form
Protocol: (§3) After 1 mg of compound A has been taken perorally in tablet form a maximal active substance level is already reached after 45 minutes. Clinically relevant effects, that is, effects noticed by patients, generally occur already after 10 minutes.

patients = experiment: Clinically relevant effects noticed by patients (onset); assay type: in vivo, human; settings: 1 mg perorally in tablet form; generally
Protocol: as §3

[3] = test system: patients with panic syndrome; experiment: Side effects in the clinical study in patients with panic syndrome; assay type: in vivo, human
Protocol: as §1, §2
The following side effects were found:
^3 MRA = "Mean Risk per Administration", i.e. the risk at which the
particular side effect is incurred by a single intake of the medicament.
From the list of side effects, it is evident that the […] has less benzodiazepine-typical side effects of the sedative and motor type.

CC(C)(C)OC(=O)c1ncn2c1[C@@H]1CCCN1C(=O)c1c(Br)cccc1-2 [Compound A, t-butyl (S)-8-bromo-11,12,13,13a-tetrahydro-9-oxo-9H-imidazo[1,5-a]pyrrolo[2,1-c][1,4]benzodiazepine-1-carboxylate]
antipanic activity ([1]; conclusion from the clinical comparison): specific antipanic activity | Δ frequency of attack per week (n) ([1]; n = 12, p < 0.05 vs placebo): -2.6 ± 3.3 n | Average treatment period ([1]; n = 12, p < 0.05 vs placebo (Mann-Whitney U test)): 43 ± 27 days | Δ withdrawal symptom scale (WSS) ([1]; n.s. vs placebo): -3.9 ± 6.8 | Δ Covi anxiety scale (outside evaluation) ([1]; p < 0.001 vs placebo): 3.3 ± 3.2 | Δ Raskin depression scale (outside evaluation) ([1]; p < 0.001 vs placebo): 1.9 ± 3.2 | Δ Zung anxiety scale (self evaluation) ([1]; p < 0.001 vs placebo): 6.4 ± 8.5 | Δ Zung depression scale (self evaluation) ([1]; p < 0.001 vs placebo): 4.5 ± 9.0 | Average improvement in phobias ([1]; scale as initial intensity, p < 0.001 vs placebo): 2.2 ± 1.0 | Reduction in the intensity of attack ([1]; score 4 = complete, 3 = strong, 2 = weak, 1 = no effect, p < 0.01 vs placebo): 3.5 ± 0.9 | Average number of tablets at the end of treatment ([1]; tablets of 0.5 mg, n = 12, p < 0.001 vs placebo): 1.4 ± 0.9 | secondary panic symptoms in untreated intervals between successive panic attacks ([1]; vs placebo): reduced significantly better than by placebo | Tmax ([2]; read-out: time to maximal active substance level (converted)): 45 min | half-life ([2]; read-out: β-half life (converted)): 135 min | time to clinically relevant effects (noticed by patients) (patients): 10 min | quality of the observed side effects ([3]; CGI evaluation, in total): only of minimal quality | tolerance ([3]; all together): satisfactory tolerance | Coarse muscular relaxation, No. Pat. ([3]; number of patients, of 12): 1 | Dopiness, No. Pat. ([3]; number of patients, of 12): 5 | Drowsiness, No. Pat. ([3]; number of patients, of 12): 9 | Dry mouth, No. Pat. ([3]; number of patients, of 12): 1 | Headache, No. Pat. ([3]; number of patients, of 12): 1 | Nausea, No. Pat. ([3]; number of patients, of 12): 1 | Slurred speech/"heavy tongue", No. Pat. ([3]; number of patients, of 12): 2 | Unsteadiness when walking or standing, No. Pat. ([3]; number of patients, of 12): 4 | Coarse muscular relaxation, No. Reg. ([3]; number registered): 2 | Dopiness, No. Reg. ([3]; number registered): 60 | Drowsiness, No. Reg. ([3]; number registered): 45 | Dry mouth, No. Reg. ([3]; number registered): 2 | Headache, No. Reg. ([3]; number registered): 2 | Nausea, No. Reg. ([3]; number registered): 9 | Slurred speech/"heavy tongue", No. Reg. ([3]; number registered): 5 | Unsteadiness when walking or standing, No. Reg. ([3]; number registered): 13 | duration of side effects as part of the total treatment period ([3]; on average): 0.96±1.01% | total duration of side effects ([3]; on average): 7.8 ± 7.6 h | Coarse muscular relaxation, MRA (Mean Risk per Administration) ([3]; risk per single intake): 0.7% | Dopiness, MRA (Mean Risk per Administration) ([3]; risk per single intake): 21.8% | Drowsiness, MRA (Mean Risk per Administration) ([3]; risk per single intake): 16.4% | Dry mouth, MRA (Mean Risk per Administration) ([3]; risk per single intake): 0.7% | Headache, MRA (Mean Risk per Administration) ([3]; risk per single intake): 0.7% | Nausea, MRA (Mean Risk per Administration) ([3]; risk per single intake): 3.3% | Slurred speech/"heavy tongue", MRA (Mean Risk per Administration) ([3]; risk per single intake): 1.8% | Unsteadiness when walking or standing, MRA (Mean Risk per Administration) ([3]; risk per single intake): 4.7%

Source: patent US4861772A, “Method and composition to treat panic syndrome” (Hoffmann-La Roche Inc., priority 1988, dated 1989)
